The numbers were not newly measured in patent publication US8609722B2, “Anesthetic composition for topical administration comprising lidocaine, prilocaine and tetracaine” (priority 2003, dated 2013), which cites them from elsewhere.

Where a name gives a salt, the structure may show the parent alone.

One data set deals with erythrocyte heme protein. To be noted: the very young may be more susceptible.

For `CCCNC(C)C(=O)Nc1ccccc1C` (centres unmarked) [prilocaine hydrochloride], the solubility in water entry is recorded as “readily soluble in water”. In addition, the “dose above which symptoms of methemoglobinaemia usually occur” value in the data set on erythrocyte heme protein was “exceed 8 mg per kg body-weight”.
